From publication PMC9029538, “Dosing Colistimethate Every 8 h Results in Higher Plasma Concentrations of Active Colistin Than Every 12-Hourly Dosing without Increase in Nephrotoxicity: A Phase 1 Pharmacokinetics Trial in Healthy Adult Volunteers” (Antibiotics, 2022)
Like-named read-outs stand apart in the source and are kept apart here. Where a SMILES comes first, the peptide text is derived from it. Bridges are numbered along the chain shown (N, C = ends). [ ]: non-standard residue; d: D form. The star is where a group is joined. Heptanoyl(6-Me) = CC(C)CCCCC(=O)*; X1 = CC[C@H](C)CCCCC(=O)*; Dab = NCC[C@H](N)C(=O)O

Tests used:
[1] = Nephrotoxicity (serum creatinine); format: in vivo, healthy adult volunteers; parameters: serum creatinine increase (absolute): unit not given here; details: for serum creatinine increase (absolute) / serum creatinine increase (percent): 24 h post first dose
Protocol: Serum samples for kidney biomarkers were obtained for serum cystatin C, NGAL, and serum β microglobulin levels. Urine samples were obtained for urine protein, creatinine, and microalbumin excretion (see Supplementary Tables S1–S10 and Data S1–S6).
(§1) Safety assessments for TEAEs were conducted, including physical examinations (including neurological evaluations), […], vital signs, clinical laboratory tests, selected biomarkers for acute kidney injury (see section on kidney biomarkers), spirometry, and ECG measurements (see Supplementary Data S5 and S6 for clinical laboratory evaluations and schedule of events). If symptoms of ataxia were present, SARA (Scale for the Assessment and Rating of Ataxia, according to Schmitz-Hübsch et al.) assessment forms were completed to assess their severity.

[2] = Neurotoxicity (paresthesias, ataxia, SARA scores); format: in vivo, healthy adult volunteers; details: Cohort 1, 2.5 mg/kg q12h × 2 doses; Periods 1 and 3 combined; seven of eighteen
Protocol: as §1

[3] = test system: A. baumannii or P. aeruginosa; details: retrospective study, cited from earlier work
From the text: Whether the aerosolized administration of CMS translates into greater drug efficacy against MDROs in the management of HAP/VAP caused by MDROs, however, still remains a matter of controversy, as is the issue of the efficacy of colistin combination therapy. A retrospective study of pneumonia patients who received aerosolized colistin therapy for a median of 14 days reported the microbiological eradication of the causative MDRO (A. baumannii or P. aeruginosa) in 18 out of 21 cases. This high rate of eradication corroborates another retrospective study in which 37 out of 40 patients who re ...

[4] = Period 3, Cohort 1: IV 2.5 mg/kg q12h x 2 doses + aerosol 75 mg colistin base activity q12h x 2 doses; plasma after final dose; median (min-max)
Protocol: (§2) During dosing Period 1, subjects in Cohorts 1, 2, and 3 received 2 to 3 doses of IV CMS (total exposure 5–10 mg/kg) based on the specific cohort regimen. During dosing Period 2, the same subjects then received 2 to 4 doses of 75 mg of CMS via aerosolized administration, and during dosing Period 3, subjects received a combination of IV and aerosolized CMS based on the specific cohort regimen. Each dosing period was followed by a washout period of at least 3 days (Table 1).
(§3) For all plasma PK collections, 3 mL samples of whole blood were drawn into collection tubes containing sodium heparin and placed immediately on ice at specified time intervals. […] The blood was centrifuged at 2500× g within 2 h of collection, and the plasma fraction was removed and frozen at −70 °C for shipment to the Analytical Pharmacology Laboratory at the University of Toledo.
(§4) The PK analysis was conducted using Phoenix™ WinNonlin® Version 6.2 (Pharsight, a Certara Company).
Concentration versus time profiles were investigated for each of the four colistin analytes. These profiles were augmented by the inclusion of estimated concentrations at additional time points, including dosing Period 1—immediately prior to the final IV dose; dosing Period 3—immediately prior to the final IV dose; and after the final IV dose. […] In addition, the presence or absence of a proportionality dose-dependent effect was determined.

[5] = clinical
Protocol: as §2, §3, §4
(§5) Concentration versus time profiles were investigated for each of the four colistin analytes. These profiles were augmented by the inclusion of estimated concentrations at additional time points, including dosing Period 1—immediately prior to the final IV dose; dosing Period 3—immediately prior to the final IV dose; and after the final IV dose. The following PK parameters were estimated for each: maximum observed concentration (Cmax), area under the plasma concentration versus time curve, AUC (e.g., AUC 0–inf), AUC 0–t) versus time curve, time to maximum observed concentration (Tmax), elimination half-life (t1/2), slope of the post-distributive terminal portion of plasma concentration versus time curve (Kel), total body clearance/bioavailability (CL/F), and the apparent steady-state volume of distribution/bioavailability ([…]). The concentrations of intravenously administered CMS, aerosolized drug, and both delivery methods used simultaneously were compared. In addition, the presence or absence of a proportionality dose-dependent effect was determined.

[6] = Plasma pharmacokinetics after IV CMS (Period 1); details: for AUC(0-t) / AUC(0-inf) / clearance / Cmax / Vd / half-life / Tmax: human, in vivo, iv; for clearance: CL; for Vd: Vdss; for Tmax: median (min-max)
Protocol: as §2, §3, §4, §5

[7] = Cohort 3, first of four subjects
[8] = Cohort 3, fourth of four subjects
[9] = Cohort 3, second of four subjects
[10] = Cohort 3, third of four subjects
[11] = Period 2, Cohort 2: aerosol 75 mg colistin base activity q8h x 3 doses, plasma after final dose, mean (SD), SD
[12] = 2.5 mg/kg, Period 1, Cohort 1: IV 2.5 mg/kg colistin base activity q12h x 2 doses, plasma after final dose, mean (SD), SD
[13] = 2.5 mg/kg, Period 1, Cohort 2: IV 2.5 mg/kg colistin base activity q8h x 3 doses, plasma after final dose, mean (SD), SD
[14] = 2.5 mg/kg, t1/2, Period 1, Cohort 1: IV 2.5 mg/kg colistin base activity q12h x 2 doses, plasma after final dose, mean (SD), SD
[15] = 2.5 mg/kg, t1/2, Period 1, Cohort 2: IV 2.5 mg/kg colistin base activity q8h x 3 doses, plasma after final dose, mean (SD), SD
[16] = 2.5 mg/kg, Period 1, Cohort 1: IV 2.5 mg/kg colistin base activity q12h x 2 doses, plasma after final dose
[17] = 2.5 mg/kg, Period 1, Cohort 2: IV 2.5 mg/kg colistin base activity q8h x 3 doses, plasma after final dose
[18] = 3.3 mg/kg, Period 1, Cohort 3: IV 3.3 mg/kg colistin base activity q8h x 3 doses, plasma after final dose, mean (SD), SD
[19] = 3.3 mg/kg, t1/2, Period 1, Cohort 3: IV 3.3 mg/kg colistin base activity q8h x 3 doses, plasma after final dose, mean (SD), SD
[20] = 3.3 mg/kg, Period 1, Cohort 3: IV 3.3 mg/kg colistin base activity q8h x 3 doses, plasma after final dose
[21] = elimination t1/2 (half-life, as stated in text), plasma

Compound | AUC(0-t) [6, 12] [ng·h/mL] | AUC(0-t) [6, 13] [ng·h/mL] | AUC(0-inf) [6, 12] [ng·h/mL] | AUC(0-inf) [6, 13] [ng·h/mL] | clearance [6, 12] [mL/min] | clearance [6, 13] [mL/min] | Cmax [6, 12] [ng/mL] | Cmax [6, 13] [ng/mL] | Vd [6, 12] [L] | Vd [6, 13] [L] | half-life [6, 14] [h] | half-life [6, 15] [h] | Tmax [6, 16] [h] | Tmax [6, 17] [h] | AUC(0-t) [6, 18] [ng·h/mL] | AUC(0-inf) [6, 18] [ng·h/mL] | clearance [6, 18] [mL/min] | Cmax [6, 18] [ng/mL] | Vd [6, 18] [L] | half-life [6, 19] [h] | also measured
CC[C@H](C)CCCCC(=O)N[C@@H](CCN)C(=O)N[C@H](C(=O)N[C@@H](CCN)C(=O)N[C@H]1CCNC(=O)[C@H]([C@@H](C)O)NC(=O)[C@H](CCN)NC(=O)[C@H](CCN)NC(=O)[C@H](CC(C)C)NC(=O)[C@@H](CC(C)C)NC(=O)[C@H](CCN)NC1=O)[C@@H](C)O [colistin] (X1-[Dab]T[Dab][Dab][Dab][dL]L[Dab][Dab]T; lactam 4-C) |  |  |  |  |  |  |  |  |  |  |  |  |  |  |  |  |  |  |  |  | subjects with reversible nephrotoxicity (elevated serum creatinine at 24 h post first dose) ([1]; Cohort 3, after three doses of IV colistin 2.5 mg/kg q8h (so in the source)): four; serum creatinine increase (absolute) [1, 7]: 0.67; serum creatinine increase (percent) [1, 7]: 95.7%; serum creatinine increase (absolute) [1, 8]: 0.3; serum creatinine increase (percent) [1, 8]: 45.5%; serum creatinine increase (absolute) [1, 9]: 0.82; serum creatinine increase (percent) [1, 9]: 82.0%; serum creatinine increase (absolute) [1, 10]: 0.69; serum creatinine increase (percent) [1, 10]: 73.4%; time over which creatinine increases resolved ([1]; Cohort 3, ±4 days): 10 days; effect on serum creatinine ([1]; dose increased from 5 mg/kg/day (Cohort 1; 2.5 mg/kg q12h) to 7.5 mg/kg/day (Cohort 2; 2.5 mg/kg q8h)): did not result in increases in serum creatinine; subjects reporting self-limited perioral paresthesias [2]: 39%; patients with negative follow-up cultures ([3]; aerosolized colistin therapy): 37 out of 40; microbiological eradication of the causative MDRO (cases) ([3]; pneumonia patients, aerosolized colistin for a median of 14 days): 18 out of 21
CC[C@H](C)CCCCC(=O)N[C@@H](CCN)C(=O)N[C@H](C(=O)N[C@@H](CCN)C(=O)N[C@H]1CCNC(=O)[C@H]([C@@H](C)O)NC(=O)[C@H](CCN)NC(=O)[C@H](CCN)NC(=O)[C@H](CC(C)C)NC(=O)[C@@H](CC(C)C)NC(=O)[C@H](CCN)NC1=O)[C@@H](C)O [colistin A] (X1-[Dab]T[Dab][Dab][Dab][dL]L[Dab][Dab]T; lactam 4-C) | 21800 | 30400 | 23800 | 33000 | 103 | 74.5 | 3950 | 5360 | 29.5 | 21.7 | 3.32 | 3.47 | 1.02 | 0.6 | 49100 | 52400 | 64.5 | 8740 | 22.2 | 4.22 | Tmax [4]: 1.43 (0.883 – 2.38) h; t1/2 ([5]; Period 2, Cohort 1: aerosol 75 mg colistin base activity q12h x 2 doses, plasma after final dose, mean (SD)): 8.37 h; CL/F [5, 11]: 8.12 (0.628) L/h; t1/2 [5, 11]: 7.81 (1.33) h; t1/2 ([5]; Period 2, Cohort 3: aerosol 75 mg colistin base activity q6h x 4 doses, plasma after final dose, mean (SD), SD): 26.0 (31.2) h; circulating plasma concentrations following aerosol administration alone ([5]; Period 2, aerosol only): low and not related to the dose administered; AUC(0-t) ([5]; human, in vivo, inhaled or intranasal, 75 mg, AUC(0-t),, SD): 4220 ng·h/mL; CL/F ([5]; human, in vivo, inhaled or intranasal, 75 mg, CL/F): 136 mL/min; Cmax ([5]; human, in vivo, inhaled or intranasal, 75 mg, Cmax,, SD): 493 ng/mL; Vd/F ([5]; human, in vivo, inhaled or intranasal, 75 mg, Vdss/F): 98.7 L; Tmax [6, 20]: 1 h; half-life [6, 21]: ~3.5 h; time concentrations stay above the target of 2 μg/mL after dosing ([6]; q8h dosing, 8 h between doses): 6 h
CC(C)CCCCC(=O)N[C@@H](CCN)C(=O)N[C@H](C(=O)N[C@@H](CCN)C(=O)N[C@H]1CCNC(=O)[C@H]([C@@H](C)O)NC(=O)[C@H](CCN)NC(=O)[C@H](CCN)NC(=O)[C@H](CC(C)C)NC(=O)[C@@H](CC(C)C)NC(=O)[C@H](CCN)NC1=O)[C@@H](C)O [colistin B] ({Heptanoyl(6-Me)}-[Dab]T[Dab][Dab][Dab][dL]L[Dab][Dab]T; lactam 4-C) | 1940 | 3590 | 3290 | 5150 | 96.8 | 59 | 570 | 891 | 26.3 | 18.1 | 3.45 | 3.64 | 0.667 | 0.6 | 5680 | 7160 | 58.2 | 1390 | 17.3 | 3.55 | circulating plasma concentrations following aerosol administration alone ([5]; in vivo): no detectable concentrations; Tmax [6, 20]: 0.6 h; half-life [6, 21]: ~3.5 h
